According to patent US12581252B2, “Substituted pyrrolo[3,4-b]pyridines as PI3K-α inhibitors” (Relay Therapeutics, Inc., priority 2020, dated 2026):

biological target: H1047R PIK3CA enzyme (Homo sapiens, UniProt P42336, H1047R); experiment: ADP-Glo Biochemical PIK3CA Kinase Assay
Sequence (P42336 whole entry H1047R): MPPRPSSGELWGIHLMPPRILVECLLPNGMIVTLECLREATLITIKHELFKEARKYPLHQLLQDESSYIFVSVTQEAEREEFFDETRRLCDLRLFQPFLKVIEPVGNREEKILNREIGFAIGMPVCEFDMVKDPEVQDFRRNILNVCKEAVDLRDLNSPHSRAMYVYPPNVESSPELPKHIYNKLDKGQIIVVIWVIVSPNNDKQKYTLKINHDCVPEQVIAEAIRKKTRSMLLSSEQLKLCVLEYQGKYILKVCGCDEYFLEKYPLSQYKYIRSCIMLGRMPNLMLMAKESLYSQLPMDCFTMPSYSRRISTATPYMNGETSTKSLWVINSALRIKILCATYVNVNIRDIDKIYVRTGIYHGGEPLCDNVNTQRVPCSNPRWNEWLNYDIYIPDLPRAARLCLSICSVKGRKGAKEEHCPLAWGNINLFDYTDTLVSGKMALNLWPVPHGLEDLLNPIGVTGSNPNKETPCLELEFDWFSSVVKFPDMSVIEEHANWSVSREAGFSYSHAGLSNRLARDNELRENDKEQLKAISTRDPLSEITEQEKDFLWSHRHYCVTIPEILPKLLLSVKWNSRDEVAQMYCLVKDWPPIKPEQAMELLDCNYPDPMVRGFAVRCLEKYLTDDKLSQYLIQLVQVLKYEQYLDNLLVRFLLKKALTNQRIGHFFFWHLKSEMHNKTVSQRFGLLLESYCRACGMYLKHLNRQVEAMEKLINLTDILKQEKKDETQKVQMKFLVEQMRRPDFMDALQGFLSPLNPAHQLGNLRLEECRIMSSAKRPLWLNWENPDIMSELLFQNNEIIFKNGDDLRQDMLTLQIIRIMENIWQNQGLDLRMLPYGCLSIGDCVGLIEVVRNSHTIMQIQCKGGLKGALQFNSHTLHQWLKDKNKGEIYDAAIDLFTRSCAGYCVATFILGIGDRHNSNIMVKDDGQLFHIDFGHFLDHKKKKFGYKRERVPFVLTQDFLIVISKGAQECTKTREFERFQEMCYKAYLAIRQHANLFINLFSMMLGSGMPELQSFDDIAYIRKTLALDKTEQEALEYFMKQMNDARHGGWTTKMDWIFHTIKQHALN
Sequence (P27986 whole entry partner): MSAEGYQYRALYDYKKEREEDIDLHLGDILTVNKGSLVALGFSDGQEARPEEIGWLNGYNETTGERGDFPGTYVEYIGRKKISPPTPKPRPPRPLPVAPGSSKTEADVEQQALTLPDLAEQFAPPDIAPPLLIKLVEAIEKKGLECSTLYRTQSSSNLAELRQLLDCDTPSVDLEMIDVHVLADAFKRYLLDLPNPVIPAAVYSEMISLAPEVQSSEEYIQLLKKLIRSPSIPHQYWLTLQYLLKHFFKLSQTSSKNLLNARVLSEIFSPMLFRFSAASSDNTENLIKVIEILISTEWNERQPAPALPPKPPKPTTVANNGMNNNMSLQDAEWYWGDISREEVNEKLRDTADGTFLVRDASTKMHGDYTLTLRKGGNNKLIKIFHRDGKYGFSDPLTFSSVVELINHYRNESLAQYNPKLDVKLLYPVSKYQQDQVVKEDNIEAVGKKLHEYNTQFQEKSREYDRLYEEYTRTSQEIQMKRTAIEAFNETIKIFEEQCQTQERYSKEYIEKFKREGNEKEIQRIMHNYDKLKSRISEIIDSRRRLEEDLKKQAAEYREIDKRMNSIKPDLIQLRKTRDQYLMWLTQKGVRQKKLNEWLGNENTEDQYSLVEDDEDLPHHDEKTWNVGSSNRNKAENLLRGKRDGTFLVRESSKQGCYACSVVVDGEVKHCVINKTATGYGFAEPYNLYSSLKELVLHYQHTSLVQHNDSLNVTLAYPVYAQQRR

Row | IC50 | SMILES
1 | 1000 to 10000 nM | O=C(Nc1cc(Br)cc2c1C(c1cc(F)ccc1Cl)NC2=O)c1cc(F)cc(C(F)(F)F)c1Cl (stereo not drawn) [Compound I-809]
2 | 1000 to 10000 nM | Cc1ccccc1C1NC(=O)c2nccc(NC(=O)N3CCc4cccnc43)c21 (stereo not drawn) [Compound I-282]
3 | 10000 to 100000 nM | N#Cc1ccc2c(c1)CCN2C(=O)Nc1cccc2c1C(c1cc(F)ccc1Cl)NC2=O (stereo not drawn) [Compound I-2426]
4 | 10000 to 100000 nM | COC(=O)C1CN(C(=O)Nc2cccc3c2C(c2cc(F)ccc2Cl)NC3=O)c2ccccc21 (stereo not drawn) [Compound I-2317]
5 | ≤ 100 nM | CC(C)(O)c1cc(NC(=O)c2cc(F)cc(C(F)(F)F)c2)c2c(c1)C(=O)NC2c1cc(F)ccc1Cl (stereo not drawn) [Compound I-128, N-(3-(2-chloro-5-fluorophenyl)-6-(2-hydroxypropan-2-yl)-1-oxoisoindolin-4-yl)-3-fluoro-5-(trifluoromethyl)benzamide]
6 | ≤ 100 nM | Cc1ccccc1C1NC(=O)c2cc([C@@H](C)N)cc(NC(=O)c3csc4ccccc34)c21 (mixture of isomers) [Compound I-90]
7 | 10000 to 100000 nM | O=C1NC(c2cc(F)ccc2Cl)c2c(Nc3nccc4ccsc34)cc(Br)cc21 (stereo not drawn) [Compound I-1461]
8 | 1000 to 10000 nM | O=C1N[C@H](c2cc(F)ccc2Cl)c2c(NC(=O)N3CCc4ccccc43)cc(-c3ccc4ncnn4c3)cc21 (stereo in doubt) [Compound I-1716]
9 | 1000 to 10000 nM | CSc1nc(NC(=O)c2cc(F)cc(C(F)(F)F)c2)c2c(n1)C(=O)NC2c1ccccc1Cl (stereo not drawn) [Compound I-183]
10 | 1000 to 10000 nM | [2H]C1([2H])N(C(=O)Nc2cccc3c2[C@@H](c2cc(F)ccc2Cl)NC3=O)c2ccc(F)cc2[C@@]1(O)C(F)(F)F (single isomer, unassigned) [Compound I-2594]
11 | 100 to 500 nM | O=C(Nc1cc(Br)cc2c1C(c1cc(F)ccc1Cl)NC2=O)c1cc(F)cc(Cl)c1Cl (stereo not drawn) [Compound I-816]
12 | ≤ 100 nM | CC(=O)Cc1cc(NC(=O)c2cc(F)cc(C(F)(F)F)c2)c2c(c1)C(=O)NC2c1cc(F)ccc1C(F)F (stereo not drawn) [Compound I-620]
13 | 1000 to 10000 nM | O=C(Nc1cc(-c2ccc(=O)n(C(F)F)c2)cc2c1[C@@H](c1cc(F)ccc1Cl)NC2=O)c1cc(F)cc(C(F)(F)F)c1 [Compound I-1860]
14 | 1000 to 10000 nM | O=C1N[C@@H](c2cc(F)ccc2Cl)c2c(NC(=O)N3C[C@@](O)(C(F)(F)F)c4cc(F)ccc43)cc(-n3ccccc3=O)cc21 (single isomer, unassigned) [Compound I-2530]
15 | 10000 to 100000 nM | COc1ncc2c(c1NC(=O)c1cc(F)cc(C(F)(F)F)c1)C(c1ccccc1Cl)NC2=O (stereo not drawn) [Compound I-335, N-(1-(2-chlorophenyl)-6-methoxy-3-oxo-2,3-dihydro-1H-pyrrolo[3,4-c]pyridin-7-yl)-3-fluoro-5-(trifluoromethyl)benzamide]
16 | 10000 to 100000 nM | O=C1NC(c2cc(F)ccc2Cl)c2c(NC(=O)C3(c4ccccc4)COC3)cc(Br)cc21 (stereo not drawn) [Compound I-632]
17 | 100 to 500 nM | O=C(CO)Nc1cc(NC(=O)c2cc(F)cc(C(F)(F)F)c2)c2c(c1)C(=O)N[C@@H]2c1cc(F)ccc1Cl [Compound I-512]

Row | IC50 | SMILES
18 | 100 to 500 nM | Cc1ccccc1C1NC(=O)c2c(C(N)=O)ncc(NC(=O)c3cc(F)cc(C(F)(F)F)c3)c21 (stereo not drawn) [Compound I-265]
19 | ≤ 100 nM | Cc1ccccc1C1NC(=O)c2cccc(NC(=O)c3coc4c(F)cc(Cl)cc34)c21 (stereo not drawn) [Compound I-81]
20 | 1000 to 10000 nM | O=C(Nc1cccc2c1[C@@H](c1cc(F)ccc1Cl)NC2=O)c1cc(F)cc(C(F)(F)F)c1 [Compound I-860]
21 | 1000 to 10000 nM | O=C(Nc1cc(Br)cc2c1C(c1cc(F)ccc1Cl)NC2=O)c1cncc(Cl)c1 (stereo not drawn) [Compound I-909]
22 | 10000 to 100000 nM | COc1cccc(C2NC(=O)c3cccc(NC(=O)c4cc(F)cc(C(F)(F)F)c4)c32)c1 (stereo not drawn) [Compound I-687]
23 | 100 to 500 nM | Cc1ccccc1C1NC(=O)c2cccc(NC(=O)c3cc(F)cc(C(F)(F)F)c3)c21 (stereo not drawn) [Compound I-2]
24 | 1000 to 10000 nM | CCOC(=O)Cc1cc(F)cc(C(=O)Nc2cc(CC(=O)OCC)cc3c2C(c2cc(F)ccc2Cl)NC3=O)c1 (stereo not drawn) [Compound I-697]
25 | ≤ 100 nM | CNC(=O)c1ccc(NC(=O)c2csc3ccccc23)c2c1C(=O)NC2c1ccccc1C (stereo not drawn) [Compound I-150]
26 | 500 to 1000 nM | O=C(Nc1ccnc2c1C(c1ccccc1Cl)NC2=O)c1cc(F)c(F)c(Cl)c1 (stereo not drawn) [Compound I-550]
27 | 1000 to 10000 nM | O=C1N[C@@H](c2cc(F)ccc2Cl)c2c(NC(=O)N3C[C@](O)(C(F)F)c4cc(F)ccc43)cc(Cl)cc21 (single isomer, unassigned) [Compound I-2590]
28 | ≤ 100 nM | O=C(Nc1cc(NCCO)cc2c1C(c1cc(F)ccc1Cl)NC2=O)c1cc(F)cc(C(F)(F)F)c1 (stereo not drawn) [Compound I-707]
29 | 100 to 500 nM | O=C1NC(c2cc(F)ccc2Cl)c2c(NC(=O)N3CC4(CC4)c4cc(F)ccc43)cc(Br)cc21 (stereo not drawn) [Compound I-1512]
30 | ≤ 100 nM | O=C(Nc1cc(CS(=O)(=O)c2ccccc2)cc2c1[C@H](c1cc(F)ccc1Cl)NC2=O)c1cc(F)cc(C(F)(F)F)c1 [Compound I-1591]
31 | ≤ 100 nM | CC(O)Cc1cc(NC(=O)c2cc(F)cc(C(F)(F)F)c2)c2c(c1)C(=O)NC2c1cc(F)ccc1Cl (racemic) [Compound I-665]
32 | 10000 to 100000 nM | CNc1cc(NC(=O)N2C[C@@](O)(C(F)F)c3cc(F)ccc32)c2c(c1)C(=O)N[C@@H]2c1cc(F)ccc1Cl (single isomer, unassigned) [Compound I-2679]
33 | 1000 to 10000 nM | CC(=O)c1cc(F)cc(C(=O)Nc2cccc3c2C(c2cc(F)ccc2Cl)NC3=O)c1 (stereo not drawn) [Compound I-581]

More lines, now with the values behind:

Row | SMILES | IC50
34 | O=C(Nc1cc(-c2ccn3ncnc3c2)cc2c1[C@@H](c1cc(F)ccc1Cl)NC2=O)c1cc(F)cc(C(F)(F)F)c1 (stereo in doubt) [Compound I-1596] | 1000 to 10000 nM
35 | O=C(Nc1cc(-c2cncnc2)cc2c1[C@@H](c1cc(F)ccc1Cl)NC2=O)c1cc(F)cc(C(F)(F)F)c1 [Compound I-1094] | 500 to 1000 nM
36 | O=C1NC(c2cc(F)ccc2Cl)c2c1cc(-c1ccc3ncnn3c1)cc2N1CCN(C(=O)C(F)(F)F)CC1 (stereo not drawn) [Compound I-2046] | 10000 to 100000 nM
37 | O=C(Nc1cccc2c1[C@H](C13C[C@H]4C[C@@H](C1)C[C@@H](C3)C4)NC2=O)c1cc(F)cc(C(F)(F)F)c1 (racemic) [Compound I-2075] | 1000 to 10000 nM
38 | O=C1NC(c2cc(F)ccc2Cl)c2c(NCC3CCCCC3)cc(Br)cc21 (stereo not drawn) [Compound I-1726] | 10000 to 100000 nM
39 | O=C(Nc1cc(-c2ccc3nnc(Cl)n3c2)cc2c1[C@@H](c1cc(F)ccc1Cl)NC2=O)c1cc(F)cc(C(F)(F)F)c1 [Compound I-1676] | 100 to 500 nM
40 | Nc1nc2cc(-c3cc(NC(=O)c4cc(F)cc(C(F)(F)F)c4)c4c(c3)C(=O)N[C@@H]4c3cc(F)ccc3Cl)ccn2n1 [Compound I-1446] | ≤ 100 nM
41 | CN1CCCC[C@H]1C(=O)Nc1cc(-c2ccc3ncnn3c2)cc2c1[C@H](c1cc(F)ccc1Cl)NC2=O (racemic) [Compound I-1948] | 10000 to 100000 nM
42 | O=C(Nc1cc(-c2ccc3nnc(C(F)F)n3c2)cc2c1[C@H](c1cc(F)ccc1Cl)NC2=O)c1cc(F)cc(C(F)(F)F)c1 [Compound I-1925] | ≤ 100 nM
43 | CC(N1C[C@H](O)C[C@H]1C(=O)Nc1cccc2c1C(c1cc(F)ccc1Cl)NC2=O)C(F)(F)F (mixture of isomers) [Compound I-2407] | 10000 to 100000 nM
44 | O=C(Nc1cc(N[C@H]2C[C@@H](F)C2)cc2c1C(c1cc(F)ccc1Cl)NC2=O)c1cc(F)cc(C(F)(F)F)c1 (single isomer, unassigned) [Compound I-541] | ≤ 100 nM
45 | O=C(Nc1cc(-c2cn3ncnc3cn2)cc2c1[C@@H](c1cc(F)ccc1Cl)NC2=O)c1cc(F)cc(C(F)(F)F)c1 [Compound I-1440] | 1000 to 10000 nM
46 | O=C1N[C@@H](c2cc(F)ccc2Cl)c2c(NC(=O)N3C[C@H](O)C[C@@H](C(F)(F)F)C3)cccc21 (single isomer, unassigned) [Compound I-2237] | 1000 to 10000 nM
47 | O=C(Nc1cc(-c2n[nH]c3ccncc23)cc2c1C(c1cc(F)ccc1Cl)NC2=O)c1cc(F)cc(C(F)(F)F)c1 (stereo not drawn) [Compound I-938] | 100 to 500 nM
48 | O=C(Nc1cccc2c1C(C1=C(F)CCCC1)NC2=O)c1cc(F)cc(C(F)(F)F)c1 (racemic) [Compound I-1790] | 500 to 1000 nM
49 | O=C(Nc1cccc2c1C(CN1CCCC1)NC2=O)c1cc(F)cc(C(F)(F)F)c1 (stereo not drawn) [Compound I-1761] | 10000 to 100000 nM
50 | O=C(Nc1cc(O[C@H]2CCCNC2)cc2c1C(c1cc(F)ccc1Cl)NC2=O)c1cc(F)cc(C(F)(F)F)c1 (mixture of isomers) [Compound I-1527] | 100 to 500 nM
51 | O=C(Nc1cc(-c2ccc3nnc(Cl)n3c2)cc2c1C(c1cc(F)ccc1Cl)NC2=O)c1cc(F)cc(C(F)(F)F)c1 (stereo not drawn) [Compound I-1574] | ≤ 100 nM
52 | O=C1NC(c2cc(F)ccc2Cl)c2c(NC(=O)C34CC5CC(F)(CC(F)(C5)C3)C4)cccc21 (stereo not drawn) [Compound I-1180] | 100 to 500 nM
53 | [2H][C@@]1(c2cc(F)ccc2Cl)NC(=O)c2cc(-c3ccc4ncnn4c3)cc(NC(=O)c3cc(F)cc(C(F)(F)F)c3)c21 (single isomer, unassigned) [Compound I-1601] | ≤ 100 nM
54 | O=C(Nc1cc(N2CC3(CCN3)C2)cc2c1C(c1cc(F)ccc1Cl)NC2=O)c1cc(F)cc(C(F)(F)F)c1 (stereo not drawn) [Compound I-1388] | 100 to 500 nM
55 | COCc1cc(NC(=O)N2C[C@@](O)(C(F)(F)F)c3cc(F)ccc32)c2c(c1)C(=O)N[C@H]2c1cc(F)ccc1Cl (single isomer, unassigned) [Compound I-2543] | 1000 to 10000 nM
56 | O=C1N[C@@H](c2cc(F)ccc2Cl)c2c(NC(=O)[C@@H]3CCC[C@H](C(F)(F)F)C3)cc(-c3ccc4ncnn4c3)cc21 [Compound I-2030] | 500 to 1000 nM
57 | O=C1N[C@H](c2cc(F)ccc2Cl)c2c(Nc3nccc4c(C(F)(F)F)cc(F)cc34)cc(Br)cc21 [Compound I-1110] | 1000 to 10000 nM
58 | O=C1N[C@@H](c2cc(F)ccc2Cl)c2c(NC(=O)N3C[C@H](O)c4cc(F)ccc43)cc(-n3nccn3)cc21 (single isomer, unassigned) [Compound I-2342] | 100 to 500 nM
59 | O=C1NC(c2cc(F)ccc2Cl)c2c(NC(=O)C3CCC4C(C3)C4(F)F)cc(Br)cc21 (stereo not drawn) [Compound I-1623] | 1000 to 10000 nM
60 | O=C(Nc1cc(OC2CN(C(=O)C(F)(F)F)C2)cc2c1C(c1cc(F)ccc1Cl)NC2=O)c1cc(F)cc(C(F)(F)F)c1 (racemic) [Compound I-1320] | 100 to 500 nM
